Tests used:
breast cancer cells = details: Yi et al., 2013; cited from earlier work
human spermatozoa [1] = experiment: Protein tyrosine phosphorylation (sperm capacitation hallmark) by anti-phosphotyrosine western blot; type: cell-based
Description: For sperm incubations Biggers-Whitten-Whittingham (BWW) media described by Biggers J D et al. (1971) with slightly modifications was used. BBW-washed (BWW-W): 94.5 mM NaCl, 4.8 mM KCl, 1.7 mM CaCl2×2H2O, 1.17 mM KH2PO4, 1.22 mM MgSO4×7H2O, 20 mM HEPES. Non capacitation media (NC) contains all the component of BWW-washed plus 5.56 mM glucose and gentamycin 10 mg/mL. Capacitating media (CAP): contains all the component of NC plus 25 mM of HCO3 and 26 mg of Bovine Serum Albumin (BSA). All the media were balanced to a final pH 7.2-7.4
(§1) For sperm preparation, semen samples were collected by masturbation into sterile cups after 2-4 days of sexual abstinence. Samples were left to liquefy for up 2 hours at 37° C. to complete liquefaction prior to processing as described below. Only ejaculates whose semen parameters (total fluid volume, sperm concentration, motility and morphology) meet the (2010) normality criteria established by the WHO (2010) were processed. Ejaculates were submitted to discontinuous gradient centrifugation (Sperm Wash Gradient Set (45% and 90%)) for 20 min at 300 g at room temperature. […] The pellet was then resuspended in 1 mL of non-capacitating (NC) media and sperm concentration was determined using a Neubauer counting chamber under an optical microscope (×100 magnification). Due to the low number of spermatozoa obtained in each ejaculate, different ejaculates were pooled for different assessments. Finally, depending on experimental design spermatozoa were diluted in 1 ml of capacitating (CAP media containing 26 mg/mL of BSA and 25 mM of bicarbonate) or NC at a final concentration of 20×10^6/ml for 6 hours at 37° C. in presence or absence of the activator. YK-3-237 was added at the referred concentration at time 0 of incubation and keep along the time of sperm incubation.
For the Western blot analysis, spermatozoa were washed twice in phosphate-buffered saline (PBS) by centrifugation at 5000 g for 3 min at room temperature. The pellet was resuspended in 2×Laemmli sample buffer and incubated over night at 4° C. The samples were then centrifuged again (10000 g, 15 min, 4° C.) and the protein concentration was measured using a Bio-Rad DC Protein Assay. […] The phosphorylation state of the sperm proteins was analysed by overnight incubation at 4° C. with an anti-phosphotyrosine monoclonal antibody (mAb; Clone 4G10, Millipore; diluted 1:3000, v/v, in Tris-buffered saline-Tween 20 solution (TBST) containing 3% milk). The levels of sperm lipid peroxidation was evaluated by overnight incubation at 4° C. with an anti-4-hydroxynonenal (4HNE) antibody (pAb; Millipore; diluted 1:3000, v/v, in Tris-buffered saline-Tween 20 solution (TBST) containing 3% BSA. Membranes incubated with anti-phosphotyrosine were incubated for 60 min at room temperature with a horseradish peroxidase (HRP)-conjugated secondary anti-mouse antibody (diluted 1:5000, v/v, in TBST containing or 3% milk). Membranes incubated with anti-4HNE were incubated for 60 min at room temperature with a horseradish peroxidase (HRP)-conjugated secondary anti-goat antibody (diluted 1:5000, v/v, in TBST containing or 3% BSA). […]
Membranes' fluorescence was read with the BioRad FX-Pro-plus (Bio-Rad, Hemel Hempstead, UK). […] Western blotting regions of interest (ROIs) used for quantification are indicated by a vertical bar on the right of the respective western blot. […]

renal fibroblast = details: Ponnusamy et al., 2015; cited from earlier work
human spermatozoa [2] = experiment: Sperm viability by eosin-nigrosin staining; type: cell-based; details: 6 hours, capacitating conditions
Description: as §1, with “YK-3-237 was added at the referred concentration at time 0 of incubation and keep along the time of sperm incubation.” left out
For determination of sperm viability, the instructions by the WHO (2010) were followed, sperm viability was assessed by eosin-nigrosin staining technique. […] A total of 200 spermatozoa were counted in random fields under a bright-field microscope. […]

COc1ccc(/C=C/C(=O)c2cc(OC)c(OC)c(OC)c2)cc1B(O)O [YK-3-237, B-[2-methoxy-5-[(1E)-3-oxo-3-(3,4,5-trimethoxyphenyl)-1-propen-1-yl]phenyl]-boronic acid]
effect on breast cancer cells (breast cancer cells): antiproliferative effect | tyrosine phosphorylation levels, co-incubation in presence of bicarbonate (human spermatozoa [1]; 10 μM, 6 hours, bicarbonate present): increases the tyrosine phosphorylation levels | tyrosine phosphorylation levels, complete capacitating media containing bicarbonate and BSA (human spermatozoa [1]; 10 μM, 6 hours, compared with bicarbonate alone): further improved | tyrosine phosphorylation levels in comparison with control (human spermatozoa [1]; 6 hours co-incubation, capacitating media (HCO3 25 mM, BSA 26 mg/mL), 37° C., vs control 6 hours): tripled | best concentration which enhanced tyrosine phosphorylation levels (human spermatozoa [1]; 6 hours incubation in capacitating conditions (bicarbonate and BSA)): 10 µM | increase of tyrosine phosphorylation levels (human spermatozoa [1]; human sperm, capacitating conditions, FIGS. 1A, 2A and 3A): up to 3 folds | effect on renal fibroblast and renal fibrogenesis (renal fibroblast): promotes renal fibroblast activation and aggravates renal fibrogenesis | effect on sperm viability (human spermatozoa [2]; 10 μM): did not affect sperm viability | effect on sperm viability, all concentrations tested (human spermatozoa [2]; 37° C., different concentrations): none of the concentration tested had detrimental effect

Reference: US20230390314A1, “METABOLIC ACTIVATORS FOR ENHANCING SPERM CAPACITATION IN MAMMALS” (UNIVERSIDADE DO PORTO, priority 2020, published 2023)
